Consider 1 sequence from patent US20260374815A1, “PIGMENT EPITHELIUM-DERIVED FACTOR PEPTIDES AND USE FOR TREATING RETINAL DEGENERATION” (priority 2022, published 2026).

Where no end group is shown, it is not given here.

Data set [1] concerns photoreceptor function, rd10 mice. Description: Electroretinography (ERG), rd10 mice. In kind it is in vivo, mouse. As for the experimental part: (§1) At end point, eyes were enucleated and cross section of retinas from the treated animals were obtained. […] Third, electroretinography was performed in untreated and eyes treated with the 17mer[H105A] peptide eyedrops. Following an intense brief flash of light from darkness, the negative-going a-wave is generated by rod photocurrents and the positive-going b-wave by depolarizing bipolar-cell currents in combination with bipolar cell-dependent K^+ currents affecting Müller cells. […] Scotopic b wave was also measured for both rd10 and rd10/SerpinF1 null mice (FIG. 10C). The data from these different assays corroborate the PSVue® data and illustrate the efficacy of eyedrops of the 17mer[H105A] peptide for protecting the photoreceptors against malformation, death, and misfunction in vivo.
At end point, eyes were enucleated and cross section of retinas from the treated animals were obtained. […] Electroretinography was also performed in untreated and eyes of rd10 mice treated with the […] eyedrops. […] The work was done with 3 animals, which may not give statistical significance.

Data set [2] deals with photoreceptor function, rd10/Serpinf1 null mice. Description: Electroretinography (ERG), rd10/Serpinf1 null mice. Type of data set: in vivo, mouse. Particulars: P21, daily eyedrops P15-P20. Here is the method: as §1
Data set [3] in a line: Penetration or bioavailability of labeled peptide in retina after eyedrop (fluorometry of retinal extract). In kind it is in vivo, mouse (C57/B16J). Particulars: eyedrops; P21 mice; measured with the Alexa488-labeled peptide. Here is the method:
To detect labeled peptide in vitro, the labeled Alexa488-17-mer[H105A] peptide was diluted in HBSS at the indicated concentrations (X-axis). A total of 30 μl of each was added to a well in 96-well plate in triplicates. RIPA buffer was added to one dissected mouse retina at 80 μl/retina. The suspension was sonicated for 30 sec at 4 °C followed by centrifugation at 4 °C. 10 min at […] (Eppendorf centrifuge) to separate the soluble retinal extract from the particulate material. The labeled peptide was diluted in retinal extract. A total of 30 μl of each was added to a well in 96-well plate. HBSS (FIG. 18A) or retinal extract (FIG. 18B) were used as a control at zero and different concentrations of 17mer[H105A]-488 as indicated in the x-axis. Fluorescence was determined using a fluorometer [BMG LabTech POLARstar OPTIMA] using wavelength at [Excitation 485-P, Emission 520-P]. Plots were obtained using GraphPad and non-linear fit were analyzed.
At 1, 3, 6 and 24 hours after administration, retinas were dissected, their proteins were extracted with RIPA (80 μl/retina) and clarified by sonication and centrifugation. A total of 30 μl of extracts were used to determine the fluorescence of the peptide with a fluorometer (FIG. 19).

Setting [4] is: P25, eyedrops every other day P15-P24.

QRTESIIARALYYDLIS [17mer[H105A]]: the “ERG amplitude of the a-wave” value in data set [1] (P21, daily eyedrops P15-P20) was “improvement”; in data set [1] (setting [4]), “improvement”; in data set [2], “improvement”. In addition, in data set [1] (setting [4]), the “ERG amplitude of the b-wave” value was “improvement”. Moreover, in data set [1] (P25, eyedrops every other day, 3 animals), the “statistical difference in b-wave between treated and untreated” value is recorded as “no statistically significant difference”. Besides, in data set [3], the “time after eyedrop at which the peptide reached the retina” value lay in the range of 1 to 24 h.
